In the supplement of paper PMC10949913:

Legend:
[1] = system: CU-ACC2; assay: area under concentration-response curve (viability) (AUC (a.u.)); higher = less active; details: 48 h
In short: (§1)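 Three adrenocortical carcinoma cell lines in 1,536-well plates received 23 nL of each library compound at 11 concentrations and were read with CellTiter-Glo after 48 h, with 15 minutes at room temperature before measuring luminescence. Vehicle and empty-well controls served for per-plate normalisation. AC50 and area under the curve were extracted from fitted concentration-response curves, discarding all curve classes other than inhibitory or non-responding.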

[2] = system: NCI-H295R; assay: as above; details: 48 h
In short: as §1

SMILES | area under concentration-response curve [1] | area under concentration-response curve [2]
NCCOc1cc(C(=O)Nc2cc(OCCN)c3ccccc3n2)nc(C(=O)Nc2cc(OCCN)c3ccccc3n2)c1 | 454 | 507
CCc1cccc(CC)c1NC(=O)N1Cc2[nH]nc(NC(=O)c3ccc(N4CCN(C)CC4)cc3)c2C1 | 614 | 597
Cc1ccc(NC(=O)[C@H]2CCCN(C(=O)c3c(C)cccc3F)[C@H]2c2ccc(NC3CCCC3)cc2)cc1C(F)(F)F | 561 | 521
NC(=O)c1ccc(N(C(N)=O)c2c(F)cccc2F)nc1-c1ccc(F)cc1F | 440 | 471
NC/1=N/C2=C(N=C[N]2[C@H]3C[C@H](O)[C@@H](CO)C3=C)C(=O)N1 | 589 | 521
CC[S+]([O-])(=O)N1CCC(CC1)C(C)[N]2C(=C(C(=O)NC\C3=C(OC)\C=C(\C)NC3=O)C4=C2C=CC=C4)C (centres undefined) | 562 | 511
O=C(NC[C@H](O)CN1CCc2ccccc2C1)c1cc(NC2COC2)ncn1 | 367 | 429
CN1C(=O)\C(=C/C2=C1N=C(NC3CCOCC3)N=C2)OC4=C(F)C=C(F)C=C4 | 611 | 565
Nc1nc(N)c2nc(-c3cccc(Cl)c3)c(N)nc2n1 | 596 | 520
CC[C@]12CC[C@H]3[C@@H](CCC/4=C/C(=O)CC[C@H]34)[C@@H]1\C=C/[C@@]2(O)C#C | 623 | 602
CC[C@H](NC(=O)[C@H](C)NC)C(=O)N1C[C@@H](O)C[C@H]1Cc1c(-c2[nH]c3cc(F)ccc3c2C[C@@H]2C[C@H](O)CN2C(=O)[C@H](CC)NC(=O)[C@H](C)NC)[nH]c2cc(F)ccc12 | 602 | 610
O=C(O)c1cnn(-c2nc3cc(Cl)c(OC(F)(F)F)cc3[nH]2)c1 | 605 | 548
Nc1nc(NCCNc2ncc(-n3ccnc3)c(-c3ccc(Cl)cc3Cl)n2)ccc1[N+](=O)[O-] | 485 | 536
COC(=O)N(CC(=O)O)Cc1cccc(OCc2nc(-c3ccc(Cl)cc3)oc2C)c1 | 553 | 452
CC/C(=C(\c1ccccc1)c1ccc(OCCN(C)C)cc1)c1ccccc1 | 455 | 554
NC(=O)c1cccnc1 | 608 | 569
NC/1=N/C(=O)N/C=C1F | 633 | 595
CNC(=O)c1ccc2cc(C3(O)CCn4cncc43)ccc2c1 (centres undefined) | 599 | 556
Cc1ccc2c(=O)c3cccc(CC(=O)O)c3oc2c1C | 540 | 486
Cc1cc(O)c2c(c1)C(=O)c1cccc(O)c1C2=O | 604 | 552
CC[C@H](NC1=C2[NH]C=NC2=NC=N1)/C3=C(/C(=O)C4=CC=CC=C4O3)C5=CC=CC(=C5)F | 432 | 488

SMILES | area under concentration-response curve [1] | area under concentration-response curve [2]
O=C(COCC(=O)N1CCN(C(c2ccccc2)c2ccccc2)CC1)Nc1ccc(Cl)cc1C(=O)O | 529 | 538
NC[C@H](O)c1ccc(O)c(O)c1 | 636 | 599
Cc1cc(N2CCOCC2)ccc1Nc1nc(NC2CCCCC2)c2nc[nH]c2n1 | 587 | 539
CN1CCN(c2ccc([N+](=O)[O-])c3no[n+]([O-])c23)CC1 | 630 | 583
COc1ccc2[nH]c([S+]([O-])Cc3ncc(C)c(OC)c3C)nc2c1 (centres undefined) | 624 | 576
CCCC[N+]1(C)[C@@H]2CC(OC(=O)[C@H](CO)c3ccccc3)C[C@H]1[C@@H]1O[C@@H]12 (some centres undefined) | 630 | 568
NC\1=N\C(=O)N(\C=C1)[C@@H]2O[C@H](CO)[C@@H](O)[C@@H]2O | 551 | 504
CC(NC(C)(C)C)C(=O)c1cccc(Cl)c1 (centres undefined) | 526 | 509
C#Cc1cccc(Nc2ncnc3cc(OCCOC)c(OCCOC)cc23)c1 | 623 | 550
CCN(CC)CCCC(C)Nc1nc(C)cc(Nc2ccc3nc(C)cc(N)c3c2)n1 (centres undefined) | 478 | 507
C[C@@H](NC1=CC=CC=C1C(O)=O)C/2=C/C(=C\N3C(=O)/C=C(\N=C23)N4CCOCC4)C | 535 | 543
O=C(O)CCNc1cc(N2CCc3ccccc3CC2)nc(-c2ccccn2)n1 | 486 | 490
C[C@@H]1Cc2c([nH]c3ccccc23)[C@@H](c2c(F)cc(/C=C/C(=O)O)cc2F)N1CC(C)(C)F | 615 | 593
C/C(=N\NC(=O)c1cccc([S+](=O)([O-])N2CCOCC2)c1)c1cc(Cl)ccc1O | 640 | 597
O=C(NC[C@H]1CN(c2ccc(N3CCOCC3=O)cc2)C(=O)O1)c1ccc(Cl)s1 | 605 | 557
CNC(=O)c1ccc(N2C(=S)N(c3ccc(C#N)c(C(F)(F)F)c3)C(=O)C2(C)C)cc1F | 559 | 499
Cc1c(-c2c(-c3ccc(F)o3)sc3ncnc(O[C@@H](Cc4ccccc4OCc4ccnn4CC(F)(F)F)C(=O)O)c23)ccc(OCCN2CCN(C)CC2)c1Cl | 600 | 529
NC(=S)N/N=C/c1ncccc1N | 442 | 440
OCc1ccccc1O[C@@H]1O[C@H](CO)[C@@H](O)[C@H](O)[C@H]1O | 616 | 563
Cc1cc(NC(=O)Nc2ccc(N(C)C)cc2)c2cc(F)cc(F)c2n1 | 667 | 613
CC[C@H](NC1=C2N=C[NH]C2=NC=N1)C/3=N/C4=C(C(=CC=C4)F)C(=O)N3C5=CC=CC=C5 | 582 | 536
